This is an account of results in ChEMBL document CHEMBL2010736 (ACS Med Chem Lett, 2011).

For experiment [1], the target named is T1, Adenosine receptor A1 (Rattus norvegicus, UniProt P25099).
T1 sequence (P25099 whole entry): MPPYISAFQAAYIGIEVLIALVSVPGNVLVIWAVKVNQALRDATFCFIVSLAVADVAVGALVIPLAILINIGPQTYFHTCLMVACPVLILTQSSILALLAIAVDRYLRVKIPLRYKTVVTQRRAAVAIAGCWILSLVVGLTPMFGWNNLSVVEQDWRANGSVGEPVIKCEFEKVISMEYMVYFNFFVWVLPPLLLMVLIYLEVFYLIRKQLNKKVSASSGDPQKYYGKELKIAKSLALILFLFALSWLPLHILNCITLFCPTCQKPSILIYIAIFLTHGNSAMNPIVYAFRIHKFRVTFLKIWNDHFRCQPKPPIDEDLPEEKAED
Nature of the experiment: Displacement of [3H]R-PIA from rat forebrain adenosine receptor-1. Background: In a radioligand displacement assay an active substance lowers the binding of a labelled ligand.

Experiment [2] concerns the target T2, Adenosine receptor A1 (Homo sapiens) (UniProt P30542).
T2 sequence (whole entry): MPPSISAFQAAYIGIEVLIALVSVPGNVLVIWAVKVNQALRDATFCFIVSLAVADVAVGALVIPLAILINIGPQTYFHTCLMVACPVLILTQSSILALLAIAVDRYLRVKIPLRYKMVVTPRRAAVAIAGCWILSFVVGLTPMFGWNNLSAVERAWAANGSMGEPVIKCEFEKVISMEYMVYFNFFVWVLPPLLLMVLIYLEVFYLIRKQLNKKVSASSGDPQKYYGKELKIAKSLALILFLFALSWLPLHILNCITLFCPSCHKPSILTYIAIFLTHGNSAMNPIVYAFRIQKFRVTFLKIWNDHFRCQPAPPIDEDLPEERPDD
Nature of the experiment: Displacement of [3H]R-PIA from human recombinant adenosine receptor-1 expressed in CHO cell membrane at 10 uM after 60 mins by liquid scintillation counting. Type of experiment: cell membranes.

Experiment [3] addresses T3, Adenosine receptor A2a (Homo sapiens, UniProt P29274). In words: Displacement of [3H]CGS21680 from human recombinant adenosine receptor-2A expressed in HEK293 cell membrane at 10 uM after 60 mins by liquid scintillation counting. Type of experiment: cell membranes.
A further experiment deals with T4, Adenosine receptor A3 (Homo sapiens, UniProt P0DMS8).
T4 sequence (P0DMS8 whole entry): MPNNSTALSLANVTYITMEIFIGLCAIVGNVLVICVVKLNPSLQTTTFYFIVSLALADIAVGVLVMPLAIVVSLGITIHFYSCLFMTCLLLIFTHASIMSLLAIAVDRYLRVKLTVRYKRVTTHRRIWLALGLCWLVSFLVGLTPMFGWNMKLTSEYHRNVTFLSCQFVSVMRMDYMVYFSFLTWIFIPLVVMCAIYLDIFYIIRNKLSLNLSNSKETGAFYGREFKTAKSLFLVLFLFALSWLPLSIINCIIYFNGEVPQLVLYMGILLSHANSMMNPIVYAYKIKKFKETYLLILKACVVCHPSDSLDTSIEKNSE
Nature of the experiment: Displacement of [125I]AB-MECA from human recombinant adenosine receptor-3 expressed in CHO cell membrane after 60 mins by gamma-counting. Type of experiment: cell membranes.

The species entered for experiment [4] is Homo sapiens. In words: Selectivity ratio of Ki for human recombinant adenosine receptor-1 to Ki for human recombinant adenosine receptor-3.
For experiment [5], the target named is T2, Adenosine receptor A1 (Homo sapiens). In words: Agonist activity at human recombinant adenosine receptor-1 expressed in CHO cells assessed as inhibition of forskolin-stimulated cAMP production at 10 uM preincubated for 45 mins prior forskolin-induction measured after 15 mins by immunoassay relative to 10 uM CPA. Type of experiment: functional, cell-based.

The target of experiment [6] is T5, Adenosine receptor A1 (Homo sapiens, UniProt P30542).
T5 sequence (P30542 whole entry): T2 sequence (whole entry)
Nature of the experiment: Agonist activity at human recombinant adenosine receptor-1 expressed in CHO cells assessed as inhibition of forskolin-stimulated cAMP production preincubated for 45 mins prior forskolin-induction measured after 15 mins by immunoassay. Type of experiment: functional, cell-based. (Changes in cAMP serve as a functional read-out for many G protein-coupled receptors.)

In experiment [7] the target is T5, Adenosine receptor A1. Nature of the experiment: Displacement of [3H]R-PIA from human recombinant adenosine receptor-1 expressed in CHO cell membrane after 60 mins by liquid scintillation counting. Type of experiment: cell membranes.
Experiment [8] deals with T3, Adenosine receptor A2a. In words: Displacement of [3H]CGS21680 from human recombinant adenosine receptor-2A expressed in HEK293 cell membrane after 60 mins by liquid scintillation counting. Type of experiment: cell membranes.
Experiment [9] is filed under the species Homo sapiens. In words: Selectivity ratio of Ki for human recombinant adenosine receptor-3 to Ki for human recombinant adenosine receptor-1.
For experiment [10], the target named is T6, Adenosine receptor A1 (Rattus norvegicus) (UniProt P25099).
T6 sequence (whole entry): T1 sequence (P25099 whole entry)
In words: Antagonist activity at adenosine receptor-1 in rat adipocytes. Type of experiment: functional, cell-based.

Experiment [11] deals with T7, Adenosine receptor A3 (Rattus norvegicus) (UniProt P28647).
T7 sequence (whole entry): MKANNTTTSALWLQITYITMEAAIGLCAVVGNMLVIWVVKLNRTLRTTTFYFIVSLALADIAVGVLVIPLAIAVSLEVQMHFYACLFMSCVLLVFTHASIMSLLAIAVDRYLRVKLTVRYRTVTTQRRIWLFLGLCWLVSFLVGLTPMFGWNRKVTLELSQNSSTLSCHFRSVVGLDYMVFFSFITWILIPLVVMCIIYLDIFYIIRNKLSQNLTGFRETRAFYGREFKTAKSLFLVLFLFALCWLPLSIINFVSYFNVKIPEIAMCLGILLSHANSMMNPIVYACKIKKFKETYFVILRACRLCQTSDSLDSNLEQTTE
In words: Partial agonist activity at rat adenosine receptor-3. Type of experiment: functional.

The source made the active and inactive calls. The calls are words filed in the database; no cut-off is given here.

T3 sequence (P29274 whole entry): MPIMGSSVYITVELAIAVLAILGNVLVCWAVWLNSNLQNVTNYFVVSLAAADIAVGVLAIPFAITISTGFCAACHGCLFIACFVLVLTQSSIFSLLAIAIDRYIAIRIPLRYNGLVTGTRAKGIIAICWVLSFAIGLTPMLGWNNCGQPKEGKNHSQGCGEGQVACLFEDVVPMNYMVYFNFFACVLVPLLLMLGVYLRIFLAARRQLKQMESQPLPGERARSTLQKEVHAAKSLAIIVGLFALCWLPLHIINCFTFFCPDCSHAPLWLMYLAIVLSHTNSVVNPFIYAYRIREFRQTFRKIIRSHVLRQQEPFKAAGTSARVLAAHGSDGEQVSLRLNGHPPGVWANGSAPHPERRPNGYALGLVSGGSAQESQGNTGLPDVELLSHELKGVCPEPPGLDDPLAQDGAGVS

As to `O[C@@H]1[C@H](O)[C@@H]2C[C@@H]2[C@H]1n1cnc2c(NC3CCC3)nc(Cl)nc21`, the affinity on Adenosine receptor A1 [1] corresponds to a Ki of 0.7 nM.
In the case of `CCOc1ccccc1CNc1nc(Cl)nc2c1ncn2[C@H]1[C@H](O)[C@H](O)[C@@H]2C[C@@H]21`, the figures for the inhibition (in [2]; at Adenosine receptor A2a [3]) were 34% and 32%, respectively. The Ki (as a rule, the equilibrium dissociation constant of an inhibitor or competing ligand from its target) on Adenosine receptor A3 was determined as 15.2 nM.
As to `O[C@@H]1[C@H](O)[C@@H]2C[C@@H]2[C@H]1n1cnc2c(NCc3ccccc3F)nc(Cl)nc21`, in the experiment filed under Homo sapiens [4], the Ratio Ki is 115. For the same compound, at Adenosine receptor A1 [1], the inhibition constant Ki came out at 6 nM. Also, at Adenosine receptor A2a [3], the inhibition (in general, the share of the control response that was lost under treatment) is 31%.
As for `O[C@@H]1[C@H](O)[C@@H]2C[C@@H]2[C@H]1n1cnc2c(NCc3ccccc3OCCF)nc(Cl)nc21`, the inhibition in [2] was 46%; at Adenosine receptor A2a [3], 32%.
As for `Nc1nc(Cl)nc2c1ncn2[C@H]1[C@H](O)[C@H](O)[C@@H]2C[C@@H]21`, in experiment [5], the inhibition worked out at 68.1%.
With `O[C@@H]1[C@H](O)[C@@H]2C[C@@H]2[C@H]1n1cnc2c(NC(C3CC3)C3CC3)nc(Cl)nc21`, the EC50 (in general, the midpoint of the concentration-response curve) on Adenosine receptor A1 [6] was found to be 40.7 nM. For the same compound, the affinity on Adenosine receptor A1 [1] corresponds to a Ki of 0.8 nM.
Consider `COc1ccc(F)c(F)c1CNc1nc(Cl)nc2c1ncn2[C@H]1[C@H](O)[C@H](O)[C@@H]2C[C@@H]21`, for which the inhibition in experiment [2] was determined as 41%; on Adenosine receptor A2a [3], 30%. Also, the inhibitory constant (Ki) on Adenosine receptor A3 was 83.2 nM.
Consider `O[C@@H]1[C@H](O)[C@@H]2C[C@@H]2[C@H]1n1cnc2c(NCc3cc(F)ccc3F)nc(Cl)nc21`, for which, on Adenosine receptor A2a [3], the inhibition was 38%. Besides, the values for the Ki at Adenosine receptor A1 [7] and on Adenosine receptor A3 were 1260 nM and 16.5 nM, respectively.
For the compound `O[C@@H]1[C@H](O)[C@@H]2C[C@@H]2[C@H]1n1cnc2c(N[C@@H]3C[C@H]4CC[C@H]3C4)nc(Cl)nc21`, the Ki on Adenosine receptor A2a [8] was 4080 nM; on Adenosine receptor A1 [1] it was 0.7 nM; at Adenosine receptor A1 [7], 200 nM; at Adenosine receptor A3, 236 nM. Besides, the inhibition in [5] amounted to 27.8%.
As for `CC(Nc1nc(Cl)nc2c1ncn2[C@H]1[C@H](O)[C@H](O)[C@@H]2C[C@@H]21)C1CC1` (mixture of isomers), the inhibition on Adenosine receptor A2a [3] was found to be 41%.
As to `O[C@@H]1[C@H](O)[C@@H]2C[C@@H]2[C@H]1n1cnc2c(NC3CCCCCCC3)nc(Cl)nc21`, the inhibition on Adenosine receptor A2a [3] turned out to be 43%; in [5], 40.1%. Further, in the experiment listed under Homo sapiens [9], the Ratio Ki came to 2.
Take `O[C@@H]1[C@H](O)[C@@H]2C[C@@H]2[C@H]1n1cnc2c(NC3CC3)nc(Cl)nc21`: the inhibition in experiment [5] was 79%.
Regarding `O[C@@H]1[C@H](O)[C@@H]2C[C@@H]2[C@H]1n1cnc2c(N[C@H]3C[C@H]4CC[C@H]3C4)nc(Cl)nc21`, the Ki is 2450 nM on Adenosine receptor A2a [8], 0.34 nM on Adenosine receptor A1 [1], 82.6 nM at Adenosine receptor A1 [7] and 315 nM at Adenosine receptor A3. Besides, the Ratio Ki in the experiment filed under Homo sapiens [9] was 4. Besides, in [5], the inhibition is 62.1%.
As for `CCC(CC)Nc1nc(Cl)nc2c1ncn2[C@H]1[C@H](O)[C@H](O)[C@@H]2C[C@@H]21`, the inhibition in [5] was 28.6%.
Regarding `O[C@@H]1[C@H](O)[C@@H]2C[C@@H]2[C@H]1n1cnc2c(NCCCF)nc(Cl)nc21`, the figures for the inhibition (at Adenosine receptor A2a [3]; in [5]) were 29% and 23.2%, respectively.
Consider `CCCCn1c(=O)c2c(ncn2[C@@H]2O[C@H](C(=O)NC)C[C@H]2O)n(CCCC)c1=O`, for which the result in experiment [10] and in experiment [11] was Active.
`O[C@@H]1[C@H](O)[C@@H]2C[C@@H]2[C@H]1n1cnc2c(NC3CCCCC3)nc(Cl)nc21` returned a Ki at Adenosine receptor A1 [1] of 0.9 nM. Further, in the experiment listed under Homo sapiens [9], the Ratio Ki was 2. The inhibition in experiment [5] came out at 38%.
For the compound `O[C@@H]1[C@H](O)[C@@H]2C[C@@H]2[C@H]1n1cnc2c(NCc3cccc(OCCF)c3)nc(Cl)nc21`, the inhibition at Adenosine receptor A2a [3] came out at 46%. The values for the inhibition constant (Ki) on Adenosine receptor A1 [7] and on Adenosine receptor A3 were 3580 nM and 114 nM, respectively.
In the case of `CCNc1nc(Cl)nc2c1ncn2[C@H]1[C@H](O)[C@H](O)[C@@H]2C[C@@H]21`, at Adenosine receptor A2a [3], the inhibition worked out at 11%.
As to `O[C@@H]1[C@H](O)[C@@H]2C[C@@H]2[C@H]1n1cnc2c(NCC3CC3)nc(Cl)nc21`, affinity at Adenosine receptor A1 [1] was put at a Ki of 0.8 nM. The inhibition in [5] was 81%.
`O[C@@H]1[C@H](O)[C@@H]2C[C@@H]2[C@H]1n1cnc2c(NC3CCCCCC3)nc(Cl)nc21`: the inhibition in experiment [5] is 48.1%.
Consider `COc1cc(F)c(F)cc1CNc1nc(Cl)nc2c1ncn2[C@H]1[C@H](O)[C@H](O)[C@@H]2C[C@@H]21`, for which the inhibition constant (Ki) at Adenosine receptor A2a [8] amounted to 7510 nM; at Adenosine receptor A1 [7] it was 1910 nM; at Adenosine receptor A3, 40.4 nM.
`CC(C)Nc1nc(Cl)nc2c1ncn2[C@H]1[C@H](O)[C@H](O)[C@@H]2C[C@@H]21` yielded a Ki at Adenosine receptor A1 [1] of 1.9 nM. The inhibition on Adenosine receptor A2a [3] worked out at 39%; in [5], 50.5%.
